Measured values published in patent US4430345A, “Prostaglandins” (National Research Development Corporation, priority 1979, dated 1984).

Tests used:
[1] = tested on: rabbit aorta (thromboxane receptor sites); assay: Rabbit aorta system: antagonism of contraction by 11,9-(epoxymethano) PGH2; format: cell-based; parameters: key to Rabbit Aorta, affinity constant not given: (2): Partial agonist; conditions: for Kb: Oryctolagus cuniculus, 0.5 h, Gaddum-Schild Equation, read-out: AFFINITY CONSTANTS, Rabbit Aorta (converted); for Kb / Rabbit Aorta, affinity constant not given: against 11,9-(epoxymethano) PGH2, compound added 30 minutes previously
Source text: It is believed that such inhibition is the result of the compounds being thromboxane antagonists and the activity of the compounds is for convenience hereinafter discussed in these terms. […] Structural features which tend to endow a compound with a more pure antagonist form of activity are (a) the absence of a halogen substituent, particularly at the para position, in the benzene ring of a phenoxyethyl O-substituted oxime; (b) the absence of a halogen substituent at the meta position of a benzyl O-substituted oxime; and (c) the presence of two benzene rings in the oxime substituent,these rings being located, for example, on a carbon atom joined directly to the oxygen atom of the oxime group. Some activity has also been alserved in compounds according to the present invention on guinea pig tracheal muscle.
Spiral strips of thoracic aorta are suspended in Kreb's-Henseleit solution and aerated with 95% O2 /5% CO2 at 37° C. Tension changes are recorded with a Grass FTO3 force transducer. Initially, cumulative dose response curves to 11,9-(epoxymethano) PGH2 (2×10^-9, 1×10^-8, 5×10^-8 and 2.5×10^-7 M) are obtained. In a second experiment the individual compounds are added 30 minutes previously to the addition of the series of agonist doses. Affinity constants are calculated as above.
(§1) Results typical of those obtained for the various compounds (all of which are of the formula shown at the beginning of Example 4 except where otherwise indicated) are shown in Table 3.

[2] = biological target: T1, human platelets (thromboxane receptor sites) (Homo sapiens, UniProt P21731); assay: Human platelet system: antagonism of aggregation by 11,9-(epoxymethano) PGH2; format: cell-based; conditions: for Kb: against 11,9-epoxymethano analogue of PGH2, compound added 5 minutes previously, Gaddum-Schild Equation, read-out: AFFINITY CONSTANTS (KB), Human Platelets (converted)
T1 construct: Platelet-rich plasma is obtained from fresh, citrated human blood; endogenous in cells; host or cells: human platelets (platelet-rich plasma from fresh, citrated human blood)
T1 sequence (P21731 1-343): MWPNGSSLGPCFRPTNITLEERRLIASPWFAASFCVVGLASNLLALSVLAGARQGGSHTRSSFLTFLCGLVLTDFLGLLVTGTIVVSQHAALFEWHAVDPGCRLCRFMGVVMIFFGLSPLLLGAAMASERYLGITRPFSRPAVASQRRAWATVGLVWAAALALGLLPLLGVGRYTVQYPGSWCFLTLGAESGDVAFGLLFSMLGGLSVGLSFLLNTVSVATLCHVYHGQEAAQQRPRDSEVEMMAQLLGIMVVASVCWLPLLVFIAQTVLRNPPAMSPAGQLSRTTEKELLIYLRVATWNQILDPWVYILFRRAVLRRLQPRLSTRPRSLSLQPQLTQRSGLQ
Experimental: Platelet-rich plasma is obtained from fresh, citrated human blood. Addition of the 11,9-epoxymethano analogue of PGH2 (1×10^-7 M to 5×10^-7 M) causes immediate aggregation recorded as an increase in light transmission (600 nm). In a second experiment the individual compounds are added 5 minutes previously to addition of the PGH2 analogue. The dose of the PGH2 analogue added is then increased to a level which gives a similar response to that obtained in the absence of antagonist. The affinity constant, KB, for the compound is calculated according to the Gaddum-Schild Equation (based on Law of Mass Action).
[B]=molar concentration of compound
as §1

[3] = tested on: platelets, archidonic acid; assay: Platelets: block of the aggregatory action of arachidonic acid; format: cell-based, human; conditions: converted to TXA2 by the platelet enzyme system
[4] = tested on: α-adrenoceptors; assay: Rabbit aorta strip: block of the contractile action of noradrenaline; format: cell-based

| Kb [2] | SMILES | Kb [1] | further results |
| --- | --- | --- | --- |
| 20 µM | O=C(O)CCC/C=C\C[C@@H]1[C@@H](C=NOCCOc2ccccc2)[C@@H]2C=C[C@H]1C2 (relative stereo) | 400 nM | – |
| 25 µM | O=C(O)CCC/C=C\C[C@@H]1[C@@H](C=NOCCOc2ccc(F)cc2)[C@@H]2C=C[C@H]1C2 (relative stereo) | – | Rabbit Aorta, affinity constant not given [1]: (2) |
| 1.72 µM | O=C(O)CCC/C=C\C[C@H]1[C@H]2CC[C@H](C2)[C@@H]1C=NOCc1ccc(F)cc1 (relative stereo) | 435 nM | – |
| 1.69 µM | O=C(O)CCC/C=C\C[C@H]1[C@H]2CC[C@H](C2)[C@@H]1C=NOCc1cccc(Cl)c1 (relative stereo) | – | Rabbit Aorta, affinity constant not given [1]: (2) |
| 3.57 µM | O=C(O)CCC/C=C\C[C@H]1[C@H]2CC[C@H](C2)[C@@H]1C=NOCc1ccc(Cl)cc1Cl (relative stereo) | 238 nM | – |
| 0.0208 µM | O=C(O)CCC/C=C\C[C@H]1[C@H]2CC[C@H](C2)[C@@H]1C=NOC(c1ccccc1)c1ccccc1 (relative stereo) | 5260 nM | – |
| 12 µM | O=C(O)CCCCCC[C@H]1[C@H]2CC[C@H](C2)[C@@H]1C=NOCc1ccc(F)cc1 (relative stereo) | – | – |
| 5.88 µM | CCCCCON=C[C@H]1[C@@H]2CC[C@@H](C2)[C@@H]1C/C=C\CCCC(=O)O (relative stereo) [(CH2)4 CH3] | 6670 nM | – |

The next lines start with the compound.

| SMILES | Kb [2] | Kb [1] | further results |
| --- | --- | --- | --- |
| O=C(O)CCC/C=C\C[C@@H]1[C@@H](C=NOCc2ccccc2)[C@@H]2C=C[C@H]1C2 (relative stereo) | 5.26 µM | 667 nM | – |
| O=C(O)CCC/C=C\C[C@@H]1[C@@H](C=NOCc2ccc(Cl)cc2)[C@@H]2C=C[C@H]1C2 (relative stereo) | 4.76 µM | 149 nM | – |
| O=C(O)CCC/C=C\C[C@@H]1[C@@H](C=NOC(c2ccccc2)c2ccccc2)[C@@H]2C=C[C@H]1C2 (relative stereo) | 0.0196 µM | 1690 nM | – |
| O=C(O)CCC/C=C\C[C@@H]1[C@@H](C=NOCCOc2ccc(Cl)cc2)[C@@H]2C=C[C@H]1C2 (relative stereo) | 10 µM | – | Rabbit Aorta, affinity constant not given [1]: (2) |
| O=C(O)CCC/C=C\C[C@H]1[C@H]2CC[C@H](C2)[C@@H]1C=NOCc1cccc(C(F)(F)F)c1 (relative stereo) | – | – | Rabbit Aorta, affinity constant not given [1]: (2) |
| O=C(O)CCC/C=C\C[C@@H]1[C@@H](C=NOCc2ccc(F)cc2)[C@@H]2C=C[C@H]1C2 (relative stereo) [Example 1, 5-endo-(6'-Carboxyhex-2'-Z-enyl)-6-exo-(O-p-fluorobenzyloxyiminomethyl)-bicyclo[2,2,1]hept-2Z-ene] | – | – | block of aggregatory action of archidonic acid (in words) [3]: block the aggregatory action of archidonic acid; block of contractile action of noradrenaline (in words) [4]: do not block the contractile action of noradrenaline; activity in the rabbit aorta strip test (in words) ([1]; 11,9-(epoxymethano) PGH2, rabbit aorta strip): pure antagonists in the rabbit aorta strip test; activity in the platelet test (in words) ([2]; 11,9-(epoxymethano) PGH2, human platelets in vitro): antagonists in the platelet test |
| O=C(O)CCC/C=C\C[C@@H]1[C@@H](C=NOCc2ccc(F)cc2)[C@@H]2C=C[C@H]1C2 (relative stereo) [drawing 29] | 2.5 µM | 278 nM | – |
